Measurements from US7300925B2, “2-ethyl and 2-ethylidene-19-nor-vitamin D compounds” (Wisconsin Alumni Research Foundation, priority 2000, dated 2007).
Values joined by “and” are separate entries in the source; they are usually repeats but may differ in a detail not shown here. Equal entries are not always repeated.

Tests used:
[1] = system: bone calcium mobilization; assay: bone calcium mobilization (serum Ca) in vitamin D-deficient rats on a low-calcium diet; assay type: in vivo; details: for Serum Ca (mean ± SEM): vitamin D-deficient rats, low-calcium diet, 24 hours after the last dose
[2] = system: intestinal calcium transport; assay: support of intestinal calcium transport in vitamin D-deficient rats on a low-calcium diet; assay type: in vivo; details: for Ca transport S/M (mean ± SEM): vitamin D-deficient rats, low-calcium diet, 24 hours after the last dose
[3] = system: human promyelocyte HL-60 cells; assay: induction of differentiation of HL-60 cells into monocytes; assay type: cell-based; details: compared with 1α,25-(OH)2D3; FIG. 6a, 6b
Experimental: FIG. 6a is a graph illustrating the percent HL-60 cell differentiation as a function of the concentration of the 2-ethylidene-19-nor-vitamins as compared to 1α,25-dihydroxyvitamin D3; and
FIG. 6b is a graph illustrating the percent HL-60 cell differentiation as a function of the concentration of the 2α and 2β-ethyl-19-nor-vitamins as compared to 1α,25-dihydroxyvitamin D3.
The synthesized vitamins were tested for their ability to bind the porcine intestinal vitamin D receptor. […] In the next assay, the cellular activity of the synthesized compounds was established by studying their ability to induce differentiation of human promyelocyte HL-60 cells into monocytes.

[4] = 130 pmol daily i.p. for seven days
[5] = 260 pmol daily i.p. for seven days
[6] = 65 pmol daily i.p. for seven days

SMILES	Serum Ca (mean ± SEM) [1, 4]	Serum Ca (mean ± SEM) [1, 5]	Ca transport S/M (mean ± SEM) [2, 4]	Ca transport S/M (mean ± SEM) [2, 5]	Serum Ca (mean ± SEM) [1, 6]	Ca transport S/M (mean ± SEM) [2, 6]	calcemic activity in vivo in rats (in words) ([1]; overall judgement of Table 1 (intestine and bone))	ability to induce differentiation of HL-60 cells into monocytes (in words) [3]	ability to mobilize calcium from bone (in words) ([1]; rats, Table 1)	intestinal activity (in words) ([2]; rats, Table 1)
C=C1/C(=C\C=C2/CCC[C@]3(C)[C@@H]([C@H](C)CCCC(C)(C)O)CC[C@@H]23)C[C@@H](O)C[C@@H]1O [Compound 1, 1α,25-dihydroxyvitamin D3, reference compound]	5.2 ± 0.2 and 5.1 ± 0.3	5.8 ± 0.3 and 6.4 ± 0.4 and 5.8 ± 0.1	4.9 ± 0.7 and 5.5 ± 0.5	5.9 ± 0.4 and 6.0 ± 0.9 and 6.5 ± 0.9						
CC=C1C(O)CC(=CC=C2CCCC3(C)C2CCC3C(C)CCCC(C)(C)O)CC1O (stereo not drawn) [Compound 4a, 1α,25-dihydroxy-2(E)-ethylidene-19-nor-vitamin D3]	5.2 ± 0.2		6.8 ± 0.4		4.5 ± 0.1	5.0 ± 0.4				
CC=C1[C@H](O)CC(=C/C=C2\CCC[C@@]3(C)C2CCC3[C@@H](C)CCCC(C)(C)O)C[C@H]1O (stereo partly drawn) [Compound 4b, 2-ethylidene-19-nor-(20S)-1α,25-(OH)2D3 (E-isomer)]	12.1 ± 0.6		5.8 ± 0.8		8.2 ± 0.3	9.0 ± 0.3	especially potent	more potent than 1α,25-(OH)2D3		
CC=C1C(O)CC(=CC=C2CCCC3(C)C2CCC3C(C)CCCC(C)(C)O)CC1O (stereo not drawn) [Compound 5a, 1α,25-dihydroxy-2(Z)-ethylidene-19-nor-vitamin D3]	4.2 ± 0.0		5.7 ± 0.9		4.4 ± 0.2	4.4 ± 0.4				
CC=C1[C@H](O)CC(=C/C=C2\CCC[C@@]3(C)C2CCC3[C@@H](C)CCCC(C)(C)O)C[C@H]1O (stereo partly drawn) [Compound 5b, 2-ethylidene-19-nor-(20S)-1α,25-(OH)2D3 (Z-isomer)]	4.0 ± 0.1		3.8 ± 0.3		4.0 ± 0.3	4.3 ± 0.7				
CCC1C(O)CC(=CC=C2CCCC3(C)C2CCC3C(C)CCCC(C)(C)O)CC1O (stereo not drawn) [Compound 6a, 2α-ethyl-19-nor-1α,25-(OH)2D3]		5.1 ± 0.1		4.0 ± 0.4						
CCC1C(O)CC(=CC=C2CCCC3(C)C2CCC3C(C)CCCC(C)(C)O)CC1O [Compound 6b, 2α-ethyl-19-nor-(20S)-1α,25-(OH)2D3]		7.0 ± 0.1		5.0 ± 0.4					strong calcium mobilization response	marked intestinal activity
CCC1C(O)CC(=CC=C2CCCC3(C)C2CCC3C(C)CCCC(C)(C)O)CC1O (stereo not drawn) [Compound 7a, 2β-ethyl-19-nor-1α,25-(OH)2D3]		5.0 ± 0.1		3.7 ± 0.3						
CCC1C(O)CC(=CC=C2CCCC3(C)C2CCC3C(C)CCCC(C)(C)O)CC1O [Compound 7b, 2β-ethyl-19-nor-(20S)-1α,25-(OH)2D3]		5.6 ± 0.1		4.1 ± 0.3						
